Measured values published in US9708306B2, “Benzimidazole derivatives and preparation process and pharmaceutical uses thereof” (WUHAN LL SCIENCE AND TECHNOLOGY DEVELOPMENT CO., LTD, priority 2015, dated 2017).
Values joined by “and” are separate entries in the source; they are usually repeats but may differ in a detail not shown here. Identical values can stand only once. Like-named read-outs stand apart in the source and are kept apart here.

Key:
[1] = tested on: spontaneously hypertensive rats (SHR); experiment: Effect on reducing blood pressure of spontaneously hypertensive rats (SHR) by multiple oral administrations; assay type: in vivo; settings: for inhibition in vivo at 0.5 mg/kg / inhibition in vivo at 1 mg/kg / inhibition in vivo at 2 mg/kg: Rattus norvegicus; for inhibition in vivo at 0.5 mg/kg / inhibition in vivo at 1 mg/kg / inhibition in vivo at 2 mg/kg / blood pressure reduction effect compared with Azilsartan medoxomil: SHR
normal rats = experiment: Effect on blood pressure of normal rats by single oral administration; assay type: in vivo, Wistar rats; settings: for inhibition in vivo at 0.5 mg/kg / inhibition in vivo at 1 mg/kg / inhibition in vivo at 2 mg/kg / change in vivo at 0.5 mg/kg / change in vivo at 1 mg/kg / change in vivo at 2 mg/kg: Rattus norvegicus, po, single, normal rats; for inhibition in vivo at 0.5 mg/kg / inhibition in vivo at 1 mg/kg / inhibition in vivo at 2 mg/kg: 8 h, read-out: blood pressure reduction at 8 h after the administration; for inhibition in vivo at 0.5 mg/kg / change in vivo at 0.5 mg/kg: 0.5 mg/kg p.o.; for inhibition in vivo at 1 mg/kg / change in vivo at 1 mg/kg: 1.0 mg/kg p.o.; for inhibition in vivo at 2 mg/kg / change in vivo at 2 mg/kg: 2.0 mg/kg p.o.; for change in vivo at 0.5 mg/kg / change in vivo at 1 mg/kg / change in vivo at 2 mg/kg: read-out: variations on heart rate
[2] = tested on: renovascular hypertensive rats; experiment: Effect on reducing blood pressure of renovascular hypertensive rats by single oral administration; assay type: in vivo, Wistar rats; settings: for change in vivo at 0.5 mg/kg / inhibition in vivo at 0.5 mg/kg / change in vivo at 1 mg/kg / inhibition in vivo at 1 mg/kg / change in vivo at 2 mg/kg / inhibition in vivo at 2 mg/kg: Rattus norvegicus, single oral administration; for change in vivo at 0.5 mg/kg / change in vivo at 1 mg/kg / change in vivo at 2 mg/kg: RHR, read-out: Variations on heart rate; for inhibition in vivo at 0.5 mg/kg / inhibition in vivo at 1 mg/kg / inhibition in vivo at 2 mg/kg: two-kidney one-clip RHR, measured 1-10 h, read-out: Maximum blood pressure reduction
[3] = 0.5 mg/kg oral once per day, 1 hour after the administration, read-out: Maximum blood pressure reduction, 1st-day administration
[4] = 0.5 mg/kg oral once per day, 1 hour after the administration, read-out: Maximum blood pressure reduction, 7th-day administration
[5] = 0.5 mg/kg oral once per day, 1 hour after the administration, read-out: Maximum blood pressure reduction, 14th-day administration
[6] = 0.5 mg/kg oral, read-out: Heart Rate (effect on reducing heart rate)
[7] = 1.0 mg/kg oral once per day, 1 hour after the administration, read-out: Maximum blood pressure reduction, 1st-day administration
[8] = 1.0 mg/kg oral once per day, 1 hour after the administration, read-out: Maximum blood pressure reduction, 7th-day administration
[9] = 1.0 mg/kg oral once per day, 1 hour after the administration, read-out: Maximum blood pressure reduction, 14th-day administration
[10] = 1.0 mg/kg oral, read-out: Heart Rate (effect on reducing heart rate)
[11] = 2.0 mg/kg oral once per day, 1 hour after the administration, read-out: Maximum blood pressure reduction, 1st-day administration
[12] = 2.0 mg/kg oral once per day, 1 hour after the administration, read-out: Maximum blood pressure reduction, 7th-day administration
[13] = 2.0 mg/kg oral once per day, 1 hour after the administration, read-out: Maximum blood pressure reduction, 14th-day administration
[14] = 2.0 mg/kg oral, read-out: Heart Rate (effect on reducing heart rate)
[15] = during the whole administration, result in words
[16] = renal artery-ligated rat, 24 hours after the administration, dose not stated
[17] = renal artery-ligated rat, result in words

SMILES	inhibition in vivo at 0.5 mg/kg [1, 3] [%]	inhibition in vivo at 0.5 mg/kg [1, 4] [%]	inhibition in vivo at 0.5 mg/kg [1, 5] [%]	inhibition in vivo at 1 mg/kg [1, 7] [%]	inhibition in vivo at 1 mg/kg [1, 8] [%]	inhibition in vivo at 1 mg/kg [1, 9] [%]	inhibition in vivo at 2 mg/kg [1, 11] [%]	inhibition in vivo at 2 mg/kg [1, 12] [%]	inhibition in vivo at 2 mg/kg [1, 13] [%]	inhibition in vivo at 0.5 mg/kg (normal rats) [%]	inhibition in vivo at 1 mg/kg (normal rats) [%]	inhibition in vivo at 2 mg/kg (normal rats) [%]	change in vivo at 0.5 mg/kg (normal rats) [%]	change in vivo at 1 mg/kg (normal rats) [%]	change in vivo at 2 mg/kg (normal rats) [%]	change in vivo at 0.5 mg/kg [2] [%]	inhibition in vivo at 0.5 mg/kg [2] [%]	change in vivo at 1 mg/kg [2] [%]	inhibition in vivo at 1 mg/kg [2] [%]	change in vivo at 2 mg/kg [2] [%]	other results
CCOc1nc2cccc(C(=O)OCc3c(-c4ccccc4)no[n+]3[O-])c2n1Cc1ccc(-c2ccccc2-c2noc(=O)[nH]2)cc1 [QR01009]	24 ± 6.8	28 ± 5.3	25 ± 4.9	42 ± 6.3	41 ± 5.9	45 ± 6.7	45 ± 5.6	48 ± 4.6	43 ± 7.2	3.1 ± 2.4	5.6 ± 1.9	4.8 ± 5.8	-5 ± 2	4	-8 ± 5	-12 ± 4	22 ± 2.8	-25 ± 5	36 ± 3.2	-28 ± 8	inhibition in vivo at 0.5 mg/kg [1, 6]: 23 ± 3%; inhibition in vivo at 1 mg/kg [1, 10]: 24 ± 2%; inhibition in vivo at 2 mg/kg [1, 14]: 27 ± 5%; blood pressure reduction effect compared with Azilsartan medoxomil ([1]; result in words): obviously superior to that of the Azilsartan medoxomil positive drug; reduction effects on the heart rate of SHR rats [1, 15]: significant reduction effects on the heart rate; inhibition in vivo at 2 mg/kg [2]: 43 ± 6.7%; blood pressure reduction at 24 hours after the administration [2, 16]: 25%; blood pressure reduction effect compared with Azilsartan medoxomil [2, 17]: obviously superior to that of the Azilsartan medoxomil positive drug; lasting time of the blood pressure reduction effect compared with Azilsartan medoxomil [2, 17]: close to that of Azilsartan medoxomil
CCOc1nc2cccc(C(=O)OCc3oc(=S)oc3C)c2n1Cc1ccc(-c2ccccc2-c2noc(=O)[nH]2)cc1 [QR01013]	14 ± 5.9	15 ± 7.1	17 ± 5.8	24 ± 5.8	28 ± 6	27 ± 6.4	34 ± 5.9	38 ± 5.7	39 ± 7.1	4.2 ± 2.7	6.2 ± 2.3	3.4 ± 4.2	-3 ± 4	5	-5 ± 4	-6 ± 4	16 ± 3	-8 ± 3	25 ± 4.5	-10 ± 5	inhibition in vivo at 2 mg/kg [2]: 34 ± 7.1%
CCOc1nc2cccc(C(=O)OCOC(=O)OCc3nc(C)c(C)nc3C)c2n1Cc1ccc(-c2ccccc2-c2noc(=O)[nH]2)cc1 [QR01017]	–	–	–	–	–	–	–	–	–	–	–	–	–	–	–	–	–	–	–	–	Heart Rate (effect on reducing heart rate) ([1]; rat, in vivo): 18 ± 5% and 24 ± 4% and 29 ± 6%; Maximum blood pressure reduction, 1st-day administration ([1]; rat, in vivo): 22 ± 5.0% and 34 ± 4.4% and 36 ± 4.5%; Maximum blood pressure reduction, 7th-day administration ([1]; rat, in vivo): 22 ± 3.3% and 35 ± 3.9% and 38 ± 2.1%; Maximum blood pressure reduction, 14th-day administration ([1]; rat, in vivo): 23 ± 3.9% and 36 ± 3.2% and 38 ± 3.6%; reduction effects on the heart rate of SHR rats ([1]; rat, in vivo): significant reduction effects on the heart rate; Variations on heart rate (normal rats; rat, in vivo): −5 ± 2% and −2 ± 4% and −4 ± 3%; blood pressure reduction at 8 h after the administration (normal rats; rat, in vivo): 2.9 ± 4.5% and 3.3 ± 4.1% and 5.1 ± 3.2%; Maximum blood pressure reduction ([2]; rat, in vivo): 25 ± 6.2% and 38 ± 3.5% and 46 ± 2.6%; blood pressure reduction at 24 hours after the administration ([2]; rat, in vivo): 20%; blood pressure reduction effect compared with Azilsartan medoxomil ([2]; rat, in vivo): obviously superior to that of the Azilsartan medoxomil positive drug; lasting time of the blood pressure reduction effect compared with Azilsartan medoxomil ([2]; rat, in vivo): close to that of Azilsartan medoxomil
CCOc1nc2cccc(C(=O)OC(C)OC(=O)OCc3nc(C)c(C)nc3C)c2n1Cc1ccc(-c2ccccc2-c2noc(=O)[nH]2)cc1 (stereo not drawn) [QR01019]	16 ± 6.2	15 ± 7.9	18 ± 4.5	36 ± 6.3	38 ± 4.6	35 ± 6.7	42 ± 4.8	46 ± 6.7	48 ± 8.6	2.4 ± 3	4.2 ± 3.5	4.5 ± 6.5	-5 ± 5	-4 ± 6	8	12 ± 4	24 ± 4	25 ± 8	38 ± 3.8	28 ± 6	inhibition in vivo at 0.5 mg/kg [1, 6]: 20 ± 6%; inhibition in vivo at 1 mg/kg [1, 10]: 18 ± 4%; inhibition in vivo at 2 mg/kg [1, 14]: 29 ± 2%; blood pressure reduction effect compared with Azilsartan medoxomil ([1]; result in words): obviously superior to that of the Azilsartan medoxomil positive drug; reduction effects on the heart rate of SHR rats [1, 15]: significant reduction effects on the heart rate; inhibition in vivo at 2 mg/kg [2]: 45 ± 7.5%; blood pressure reduction at 24 hours after the administration [2, 16]: 26%; blood pressure reduction effect compared with Azilsartan medoxomil [2, 17]: obviously superior to that of the Azilsartan medoxomil positive drug; lasting time of the blood pressure reduction effect compared with Azilsartan medoxomil [2, 17]: close to that of Azilsartan medoxomil
CCOc1nc2cccc(C(=O)OCOC(=O)OCc3no[n+]([O-])c3C)c2n1Cc1ccc(-c2ccccc2-c2noc(=O)[nH]2)cc1 [QR01020]	19 ± 6.8	18 ± 6.9	21 ± 4.6	30 ± 5.5	32 ± 8.3	35 ± 6.2	36 ± 5.3	42 ± 7.5	43 ± 7	2.8 ± 5.3	3.9 ± 4.3	5.6 ± 3.2	-1 ± 4	-7 ± 3	3	-15 ± 3	25 ± 4.3	-28 ± 6	34 ± 6.8	-25 ± 8	inhibition in vivo at 0.5 mg/kg [1, 6]: 16 ± 4%; inhibition in vivo at 1 mg/kg [1, 10]: 25 ± 3%; inhibition in vivo at 2 mg/kg [1, 14]: 18 ± 5%; reduction effects on the heart rate of SHR rats [1, 15]: significant reduction effects on the heart rate; inhibition in vivo at 2 mg/kg [2]: 48 ± 2.6%; blood pressure reduction at 24 hours after the administration [2, 16]: 15%; blood pressure reduction effect compared with Azilsartan medoxomil [2, 17]: obviously superior to that of the Azilsartan medoxomil positive drug; lasting time of the blood pressure reduction effect compared with Azilsartan medoxomil [2, 17]: close to that of Azilsartan medoxomil
CCOc1nc2cccc(C(=O)OC(C)OC(=O)OCc3no[n+]([O-])c3C)c2n1Cc1ccc(-c2ccccc2-c2noc(=O)[nH]2)cc1 (stereo not drawn) [QR01021]	23 ± 6.4	24 ± 4.1	25 ± 5	42 ± 7.7	40 ± 3.8	44 ± 5.1	44 ± 6	44 ± 8.7	46 ± 5.9	2.7 ± 3.2	3.9 ± 3.8	2.8 ± 3.1	-4 ± 3	-2 ± 5	-1 ± 3	-6 ± 5	15 ± 2.1	-3 ± 6	28 ± 4.5	-12 ± 5	blood pressure reduction effect compared with Azilsartan medoxomil ([1]; result in words): obviously superior to that of the Azilsartan medoxomil positive drug; inhibition in vivo at 2 mg/kg [2]: 32 ± 5.2%; blood pressure reduction effect compared with Azilsartan medoxomil [2, 17]: close to that of Azilsartan medoxomil
